Series [1] is described as follows: Highest frequency of acute liver toxicity observed during clinical trials, expressed as a percentage. [column '% AIGUE' in source]. As to conditions: human.
For series [2] the following is noted: human.
The conditions of series [3]: human. This is another data set of the same source.
The conditions of series [4]: human. The source holds these as a separate data set.
Series [5] can be described thus: Highest frequency of moderate liver toxicity observed during clinical trials, expressed as a percentage. [column '% BIOL' in source]. To be noted: human.
For series [6] the following is noted: human. The source holds these as a separate data set.
The conditions of series [7]: human. The source holds these as a separate data set.
For series [8] the following is noted: human, serum, 4383 h.
The conditions of series [9]: human, serum.
For series [10] the following is noted: human. This is another data set of the same source.
The conditions of series [11]: human. This is another data set of the same source.
The conditions of series [12]: human. The source holds these as a separate data set.
The conditions of series [13]: human, serum. This is another data set of the same source.
For series [14] the following is noted: human. This is another data set of the same source.
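Wherever Hepatotoxicity (association with vascular disease) is given: count of indexed literature references reporting vascular liver injury in humans, e.g. peliosis hepatitis, hepatic veno-occlusive disease or Budd-Chiari syndrome.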
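Wherever Hepatotoxicity (benign tumour) is given: value is a count of indexed literature references citing a benign tumour confirmed by histopathology.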
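Wherever Hepatotoxicity (choleostasis) is given: human cholestatic liver injury, shown by histopathology or by peak ALT or AST elevation over alkaline phosphatase ratio below 2, value counts indexed literature reports.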
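Wherever Hepatotoxicity (chronic liver disease) is given: chronic liver injury confirmed by histopathology or persistently raised serum aminotransferase activity beyond 6 months, value given as the count of indexed literature references.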
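Wherever Hepatotoxicity (cirrhosis) is given: value is a count of indexed literature references reporting cirrhosis confirmed by histopathology.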
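Wherever Hepatotoxicity (cytolytic) is given: human cytolytic liver injury, shown by histopathology or by a ratio above 5 of peak ALT or AST elevation to alkaline phosphatase elevation, value counts indexed references.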
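Wherever Hepatotoxicity (granulomatous hepatitis) is given: value is a count of indexed literature references reporting granulomatous liver disease confirmed by histopathology.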
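Wherever Hepatotoxicity (malignant tumour) is given: malignant tumour confirmed by histopathology, value gives the count of indexed literature references reporting it.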
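Wherever Hepatotoxicity (severe hepatitis) is given: human clinical data: severe hepatitis, meaning potentially life-threatening liver failure or clinically observed cases, the value counts how many indexed literature references report it.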
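Wherever Hepatotoxicity (steatosis) is given: steatosis confirmed by histopathology, value is the count of indexed references.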

For the compound `NS(=O)(=O)c1cc(C2(O)NC(=O)c3ccccc32)ccc1Cl` (stereo unspecified) [CHLORTHALIDONE], the entries for the “Hepatotoxicity (acute)” value in series [1] and in [13] were 0% and 2, respectively. Besides, the “Hepatotoxicity (cirrhosis)” value in series [2] is recorded as 0. The “Hepatotoxicity (malignant tumour)” value in [3] worked out at 0. Moreover, in series [4], the “Hepatotoxicity (steatosis)” value was 0. Further, the results for the “Hepatotoxicity (moderate)” value in series [5] and in series [9] were 0% and 0, respectively. Moreover, the “Hepatotoxicity (benign tumour)” value in series [6] is listed as 0. Also, the “Hepatotoxicity (choleostasis)” value in series [7] came out at 0. The “Hepatotoxicity (chronic liver disease)” value in series [8] turned out to be 0. Also, the “Hepatotoxicity (severe hepatitis)” value in [10] is given as 0. For the same compound, in [11], the “Hepatotoxicity (cytolytic)” value turned out to be 0. Further, the “Hepatotoxicity (granulomatous hepatitis)” value in [12] amounted to 0. The “Hepatotoxicity (association with vascular disease)” value in series [14] was found to be 0.

Take `CN1CCC[C@@H]1CCO[C@](C)(c1ccccc1)c1ccc(Cl)cc1` [CLEMASTINE]: the figures for the “Hepatotoxicity (acute)” value in series [1] and in [13] were 0% and 0, respectively. The “Hepatotoxicity (cirrhosis)” value in [2] stood at 0. Further, the “Hepatotoxicity (malignant tumour)” value in [3] is given as 0. In series [4], the “Hepatotoxicity (steatosis)” value is 0. Besides, the “Hepatotoxicity (moderate)” value in series [5] is on record as 0.7%; in series [9], 1. In series [6], the “Hepatotoxicity (benign tumour)” value was determined as 0. Also, the “Hepatotoxicity (choleostasis)” value in [7] was found to be 0. Besides, the “Hepatotoxicity (chronic liver disease)” value in series [8] is 0. In series [10], the “Hepatotoxicity (severe hepatitis)” value was found to be 0. For the same compound, in series [11], the “Hepatotoxicity (cytolytic)” value was 0. Besides, the “Hepatotoxicity (granulomatous hepatitis)” value in [12] came out at 0. In series [14], the “Hepatotoxicity (association with vascular disease)” value turned out to be 0.

Take `COc1ccc([C@@H]2Sc3cc(Cl)ccc3N(CCN(C)C)C(=O)[C@@H]2OC(C)=O)cc1` [CLENTIAZEM]: the results for the “Hepatotoxicity (acute)” value in [1] and in series [13] were 0% and 0, respectively. Moreover, the “Hepatotoxicity (cirrhosis)” value in series [2] is on record as 0. The “Hepatotoxicity (malignant tumour)” value in [3] was 0. In [4], the “Hepatotoxicity (steatosis)” value is recorded as 0. Also, the “Hepatotoxicity (moderate)” value in series [5] was found to be 3.7%; in series [9], 1. The “Hepatotoxicity (benign tumour)” value in [6] is reported as 0. The “Hepatotoxicity (choleostasis)” value in [7] was found to be 0. Moreover, the “Hepatotoxicity (chronic liver disease)” value in series [8] amounted to 0. In addition, in [10], the “Hepatotoxicity (severe hepatitis)” value is 0. In addition, the “Hepatotoxicity (cytolytic)” value in [11] amounted to 0. Further, the “Hepatotoxicity (granulomatous hepatitis)” value in [12] amounted to 0. In addition, the “Hepatotoxicity (association with vascular disease)” value in series [14] worked out at 0.

Regarding `CN(C)C(=O)CCCOC(=O)C(C)(C)Oc1ccc(Cl)cc1` [CLOFIBRIDE], the figures for the “Hepatotoxicity (acute)” value in series [1] and in series [13] were 0% and 0, respectively. Moreover, in series [2], the “Hepatotoxicity (cirrhosis)” value was 0. Besides, the “Hepatotoxicity (malignant tumour)” value in series [3] is reported as 0. Besides, the “Hepatotoxicity (steatosis)” value in series [4] is reported as 0. For the same compound, the “Hepatotoxicity (moderate)” value is recorded as 0% in [5] and 1 in series [9]. In addition, the “Hepatotoxicity (benign tumour)” value in series [6] was determined as 0. Further, the “Hepatotoxicity (choleostasis)” value in [7] came to 0. The “Hepatotoxicity (chronic liver disease)” value in series [8] was found to be 0. Also, the “Hepatotoxicity (severe hepatitis)” value in [10] was 0. In addition, the “Hepatotoxicity (cytolytic)” value in series [11] was found to be 0. In addition, the “Hepatotoxicity (granulomatous hepatitis)” value in series [12] came out at 0. In series [14], the “Hepatotoxicity (association with vascular disease)” value is reported as 0.

Consider `Clc1cccc(Cl)c1N=C1NCCN1` [CLONIDINE], for which the “Hepatotoxicity (acute)” value in series [1] (Liver) amounted to 0%; in [13] it was 0. The “Hepatotoxicity (cirrhosis)” value in series [2] worked out at 0. In [3], the “Hepatotoxicity (malignant tumour)” value was found to be 0. Further, the “Hepatotoxicity (steatosis)” value in series [4] stood at 0. In addition, the “Hepatotoxicity (moderate)” value is 12.5% in series [5] (Liver) and 1 in series [9]. Besides, the “Hepatotoxicity (benign tumour)” value in [6] is recorded as 0. Also, in series [7] (Liver), the “Hepatotoxicity (choleostasis)” value is 0. The “Hepatotoxicity (chronic liver disease)” value in series [8] is listed as 0. Besides, in [10] (Liver), the “Hepatotoxicity (severe hepatitis)” value was 0. In addition, the “Hepatotoxicity (cytolytic)” value in series [11] (Liver) was determined as 0. In [12] (Liver), the “Hepatotoxicity (granulomatous hepatitis)” value worked out at 0. Also, the “Hepatotoxicity (association with vascular disease)” value in series [14] worked out at 0.

On to `CN(C)CCC=C1c2ccccc2C=Cc2ccccc21` [CYCLOBENZAPRINE], for which the results for the “Hepatotoxicity (acute)” value in series [1] (Liver) and in series [13] were 0% and 1, respectively. Also, in series [2], the “Hepatotoxicity (cirrhosis)” value was found to be 0. For the same compound, the “Hepatotoxicity (malignant tumour)” value in series [3] is 0. Also, in series [4], the “Hepatotoxicity (steatosis)” value turned out to be 0. In addition, the “Hepatotoxicity (moderate)” value in series [5] (Liver) is listed as 0%; in series [9], 1. The “Hepatotoxicity (benign tumour)” value in [6] turned out to be 0. Moreover, the “Hepatotoxicity (choleostasis)” value in [7] (Liver) was 0. In addition, the “Hepatotoxicity (chronic liver disease)” value in series [8] is 0. In series [10] (Liver), the “Hepatotoxicity (severe hepatitis)” value is recorded as 0. For the same compound, the “Hepatotoxicity (cytolytic)” value in series [11] (Liver) was determined as 0. The “Hepatotoxicity (granulomatous hepatitis)” value in series [12] (Liver) amounted to 0. In addition, in series [14], the “Hepatotoxicity (association with vascular disease)” value is 0.

In the case of `NS(=O)(=O)c1cc2c(cc1Cl)NC(CC1CCCC1)NS2(=O)=O` (stereo unspecified) [CYCLOPENTHIAZIDE], the entries for the “Hepatotoxicity (acute)” value in [1] and in series [13] were 0% and 1, respectively. Besides, the “Hepatotoxicity (cirrhosis)” value in [2] came to 0. Moreover, the “Hepatotoxicity (malignant tumour)” value in series [3] was 0. Besides, the “Hepatotoxicity (steatosis)” value in [4] is listed as 0. Moreover, the “Hepatotoxicity (moderate)” value in [5] worked out at 0%; in series [9] it was 1. The “Hepatotoxicity (benign tumour)” value in series [6] is listed as 0. Besides, the “Hepatotoxicity (choleostasis)” value in series [7] is 0. Also, the “Hepatotoxicity (chronic liver disease)” value in series [8] was found to be 0. In addition, the “Hepatotoxicity (severe hepatitis)” value in [10] is on record as 0. Also, the “Hepatotoxicity (cytolytic)” value in series [11] was 0. For the same compound, the “Hepatotoxicity (granulomatous hepatitis)” value in series [12] was 0. The “Hepatotoxicity (association with vascular disease)” value in [14] is given as 0.

`CCC1=C(C[C@H]2NCCc3cc(OC)c(OC)cc32)C[C@H]2c3cc(OC)c(OC)cc3CCN2C1` [DEHYDROEMETINE]: the “Hepatotoxicity (acute)” value in series [1] is listed as 0%; in series [13] it was 0. Further, the “Hepatotoxicity (cirrhosis)” value in [2] was determined as 0. Moreover, the “Hepatotoxicity (malignant tumour)” value in series [3] was determined as 0. Also, the “Hepatotoxicity (steatosis)” value in series [4] was 0. The “Hepatotoxicity (moderate)” value is listed as 0% in series [5] and 1 in series [9]. Further, the “Hepatotoxicity (benign tumour)” value in [6] is listed as 0. In addition, in [7], the “Hepatotoxicity (choleostasis)” value is given as 0. The “Hepatotoxicity (chronic liver disease)” value in [8] is 0. Besides, the “Hepatotoxicity (severe hepatitis)” value in [10] came out at 0. The “Hepatotoxicity (cytolytic)” value in series [11] worked out at 0. Further, the “Hepatotoxicity (granulomatous hepatitis)” value in series [12] is 0. Further, in series [14], the “Hepatotoxicity (association with vascular disease)” value is given as 0.

With `CC(C)Nc1cccnc1N1CCN(C(=O)c2cc3cc(NS(C)(=O)=O)ccc3[nH]2)CC1` [DELAVIRDINE], the figures for the “Hepatotoxicity (acute)” value in series [1] and in [13] were 0% and 0, respectively. For the same compound, in series [2], the “Hepatotoxicity (cirrhosis)” value amounted to 0. Further, the “Hepatotoxicity (malignant tumour)” value in series [3] is recorded as 0. Besides, the “Hepatotoxicity (steatosis)” value in series [4] is on record as 0. In addition, the figures for the “Hepatotoxicity (moderate)” value in series [5] and in series [9] were 7.1% and 2, respectively. The “Hepatotoxicity (benign tumour)” value in series [6] is 0. Also, the “Hepatotoxicity (choleostasis)” value in series [7] came out at 0. Also, in series [8], the “Hepatotoxicity (chronic liver disease)” value turned out to be 0. Also, the “Hepatotoxicity (severe hepatitis)” value in series [10] amounted to 0. Further, in series [11], the “Hepatotoxicity (cytolytic)” value stood at 0. Besides, the “Hepatotoxicity (granulomatous hepatitis)” value in series [12] was 0. The “Hepatotoxicity (association with vascular disease)” value in [14] stood at 0.

These data come from ChEMBL document CHEMBL3137667, “[Drug-induced liver injury; fourteenth updated edition of the bibliographic database of liver injuries and related drugs]” (Gastroenterol Clin Biol, 2004).
